Data from patent US20100144790A1, “Use of Thalidomide for Alzheimers Disease Treatment and Prevention” (priority 2008, published 2010).
“Also recorded” adds a separate entry of the source.

Key:
[1] = tested on: Aβ deposition in the brain of APP23 mice; assay: Aβ plaque number by 6E10 immunostaining in APP23 mice after Thalidomide injection; assay type: in vivo, mouse; conditions: Thalidomide 100 mg/kg
Procedure: (§1) Thalidomide is an effective BACE1 inhibitor. The Thalidomide used to test effectiveness was ordered from Sigma, T144, 1.0 gram. The Thalidomide dose was 100 mg/kg/day. The application of Thalidomide to the mice born by the same mother was during the period from 9 months old to 12 months old. The preparation of Thalidomide was at first to be dissolved in DMSO and then diluted with saline. The injection into peritoneal cavity was performed once a day for 3 months. In general, the average weight of the mice was 30 grams. The volume of injection was 100 mg/kg/day×0.03 Kg/mouse=3 mg/mouse/day (if 10 mg/ml of Thalidomide, then 300 ul/mouse/day). […] The amyloid plaque number was 84.6/section in untreated control APP23 mice, where as there was only 3.91/section in the Thalidomide-treated APP23 mice. Use of Thalidomide in the transgenic mice reduced Aβ plaque formation and Aβ production, which is correlated to the reduced BACE1 enzymatic activity and protein level. […]
(§2) Quantitation of immunoreactive structures 30-μm serial sagittal sections through the entire rostrocaudal extent of the hippocampus were cut on a cryostat. […] For each section, we delineated a 400-μm^2 area in CA1 and in the entorhinal cortex and counted all NeuN-immunoreactive cells within that 400-μm^2 box. The mean sum of neurons was counted per animal (n=10). […] We also measured the diameter of each counted plaque. […]

BACE1 [2] = molecular target: T1, BACE1 (Mus musculus, UniProt P56818); assay: BACE1 enzymatic activity in frontal cortex crude extracts of Thalidomide-treated APP23 mice (fluorescent-labeled APP peptide); assay type: in vivo; conditions: Thalidomide 100 mg/kg
T1 construct: the frontal cortices of 12-months old APP23 transgenic mice after Thalidomide treatment with doses of 100 mg/kg for one month were obtained for the enzymatic crude extracts; from tissue; host or cells: frontal cortex / brain homogenate of APP23 transgenic mice (C57BL/6 background)
Procedure: Thalidomide is an effective BACE1 inhibitor. The Thalidomide used to test effectiveness was ordered from Sigma, T144, 1.0 gram. The Thalidomide dose was 100 mg/kg/day. The application of Thalidomide to the mice born by the same mother was during the period from 9 months old to 12 months old. The preparation of Thalidomide was at first to be dissolved in DMSO and then diluted with saline. The injection into peritoneal cavity was performed once a day for 3 months. In general, the average weight of the mice was 30 grams. The volume of injection was 100 mg/kg/day×0.03 Kg/mouse=3 mg/mouse/day (if 10 mg/ml of Thalidomide, then 300 ul/mouse/day). […]
BACE1 enzymatic activity was measured by using an aliquot of brain homogenate from APP23 and the wild-type mice. […] An equal amount of protein was mixed with 100 μl of substrate, and fluorescence intensity was measured with a microplate reader (BioTek) at an excitation wavelength of 320 nm and an emission wavelength of 390 nm.
To evaluate the BACE1 enzymatic activity level under the impact of Thalidomide, the frontal cortices of 12-months old APP23 transgenic mice after Thalidomide treatment with doses of 100 mg/kg for one month were obtained for the enzymatic crude extracts. […] The specific fluorescence was detected when labeled APPwt or APPsw peptides were cleaved by BACE1. […]

BACE1 [3] = assay: BACE1 protein level in Thalidomide-treated APP23 mice; assay type: in vivo, mouse; conditions: Thalidomide 100 mg/kg/day i.p.
Procedure: as §1, with “level. Thus Thalidomide can decrease CSF BACE1 and CSF Aβ in AD and MCI patients.” for “level.”
One BACE1 ELISA used a combination of a highly specific anti-BACE1 polyclonal antibody SECB2 as a capture antibody and biotinylated anti-BACE1 polyclonal antibody SECB1 as a detection antibody. […] The concentration of BACE1 will be calculated from the standard curve and expressed as μg/ml.

APP23 transgenic mice [4] = assay: Neuronal loss in Thalidomide-treated APP23 mice; assay type: in vivo, mouse; conditions: Thalidomide 100 mg/kg/day i.p.
Procedure: as §1, §2

APP23 transgenic mice [5] = assay: Aβ-related memory deficits in Thalidomide-treated APP23 mice; assay type: in vivo, mouse; conditions: Thalidomide 100 mg/kg/day i.p.
Procedure: The Thalidomide used to test effectiveness was ordered from Sigma, T144, 1.0 gram. […] The application of Thalidomide to the mice born by the same mother was during the period from 9 months old to 12 months old. The preparation of Thalidomide was at first to be dissolved in DMSO and then diluted with saline. The injection into peritoneal cavity was performed once a day for 3 months. In general, the average weight of the mice was 30 grams. […] The Hole-board memory task was used to measure a mouse's ability to remember which one out of four equidistant holes was baited with food. Two photobeam apparatuses were used with a hole board for assessing directed exploration in mice for behavioral tests. A tested mouse (n=10 for each group) was placed in the center of the hole-board and the number of nose pokes was automatically registered for 5 min. […] The number of head dips, time spent head-dipping, and the number of rearings was recorded. A comprehensive cognitive performance was determined by calculating the mean number of correct pokes per trial that mouse made each day. Cognition was expressed as the percentage of correct pokes. The measurements in the hole-board test were analyzed by unpaired t test. […] A recognition index was calculated for each mouse, expressed as the ratio (100TB)×(TA+TB), where TA and TB are the time spent during the second trial on subject A and subject B, respectively.

Aβ production = Aβ production in Thalidomide-treated APP23 mice; assay type: in vivo, mouse; conditions: Thalidomide 100 mg/kg/day i.p.
Procedure: as §1
APP23 and wild-type mice (n=10 per group) were killed at 12 and 24 mo of age, and one hemisphere of the brain was homogenized in homogenization buffer (250 mM sucrose, 20 mM Tris-HCl, pH 7.4, 1 mM EDTA, and 1 mM EGTA). […] Protein concentration was measured by protein assay (Bio-Rad Laboratories). […] Aβ40 and Aβ42 were measured with an Aβ40 and Aβ42 ELISA kit (Biosource International). […]

[6] = cited from earlier work
BACE1 [7] = molecular target: T2, BACE1 (Homo sapiens, UniProt P56817); assay: BACE1 enzymatic activity of AD brain crude extracts with caspase inhibitor; assay type: biochemical; conditions: AD brain enzymatic crude extracts incubated with the caspase inhibitor
T2 construct: from tissue; host or cells: post-mortem brain of sporadic AD patients (temporal cortex / hippocampus samples)
Excerpt: BACE1 enzymatic activity level increased in brains of AD patients. Fluorescent transfer peptides bearing the APP wild-type peptide (APPwt) BACE1 cleavage site (KTEEISEVKMDAE) or APP Swedish mutation (APPsw) BACE1 cleavage site ([…]) were used to test BACE1 enzymatic activity. These peptides were also labeled with methoxycoumarin acetic acid (MCA) and dinitrophenyl (DNP). As a positive control, we transiently transfected BACE1 cDNA or empty vector into HEK293 cells, and observed high-intensity fluorescence with BACE1-transfected cells (FIG. 2A). Enzymatic activity, represented by the fluorescent intensity of APPwt and APPsw fragments, increased in AD brain samples compared with ND samples (FIG. 2A). Further, more APPsw fragment than the APPwt fragment was cleaved by crude extracts from AD brain (FIG. 2A).

T1 sequence (P56818 46-501): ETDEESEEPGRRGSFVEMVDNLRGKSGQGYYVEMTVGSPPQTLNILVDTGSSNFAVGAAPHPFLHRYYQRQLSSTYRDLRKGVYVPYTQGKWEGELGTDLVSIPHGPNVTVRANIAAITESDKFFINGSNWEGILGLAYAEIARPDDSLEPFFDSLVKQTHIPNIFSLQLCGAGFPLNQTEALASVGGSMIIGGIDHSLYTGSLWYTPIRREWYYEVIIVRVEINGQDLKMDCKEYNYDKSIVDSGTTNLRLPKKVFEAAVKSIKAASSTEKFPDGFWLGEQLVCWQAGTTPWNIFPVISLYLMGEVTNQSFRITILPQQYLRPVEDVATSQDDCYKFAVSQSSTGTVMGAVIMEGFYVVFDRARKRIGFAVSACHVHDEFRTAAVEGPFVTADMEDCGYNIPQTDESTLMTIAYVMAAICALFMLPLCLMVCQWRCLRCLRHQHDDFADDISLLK
T2 sequence (P56817 46-501): as the sequence (P56818 46-501) above, with S6P, I162V, I165L, T180S, A182V, V340I, A393L, H443Q counted along it

effect on BACE1 enzymatic activity assay (in words) (BACE1 [7])	Compound	Aβ plaque number ([1]; 12 months of age, frontal cortex, 6E10 immunostaining, untreated APP23 84.6/section)	Aβ deposition / Aβ plaques (in words) ([1]; versus untreated APP23 mice)	BACE1 enzymatic activity level (in words) (BACE1 [2]; 12 months old APP23 mice, frontal cortex extracts, versus untreated APP23 mice)	decrease in BACE1 activity levels (BACE1 [2]; both the in vitro and in vivo studies, APP23 mice) [%]	BACE1 protein level (in words) (BACE1 [3])	neuronal loss (in words) (APP23 transgenic mice [4])	Aβ-related memory deficits (in words) (APP23 transgenic mice [5])	Aβ production (in words) (Aβ production)	tolerability of regimen (in words) ([6]; 400 mg Thalidomide, non-elderly subjects with other conditions, without dose-related, severe or serious adverse events)	maximum tolerable doses ([6]; human, in vivo)
–	O=C1CCC(N2C(=O)c3ccccc3C2=O)C(=O)N1 (centres unmarked) [Thalidomide]	3.91 /section	reduced; also recorded: fewer Aβ plaques	reduced	42	reduced	decreased neuronal loss	alleviated	significant reduction	tolerated	400-800 mg/daily
did not perturb activity	ZVAD (Ome)-CH2F	–	–	–	–	–	–	–	–	–	–
